How the values were obtained:
[1] = species on record: Homo sapiens; assay: Liver toxicity in human assessed as induction of drug-induced liver injury by measuring severity class index
[2] = species on record: Homo sapiens; assay: Liver toxicity in human assessed as induction of drug-induced liver injury by measuring verified drug-induced liver injury concern status
Wherever DILI severity class is given: key of the grades not given here.

Row | Compound | DILI_severity_class [1] | DILI_Concern [2]
1 | COC(=O)[C@H](c1ccccc1Cl)N1CCc2sccc2C1 [CLOPIDOGREL] | 7 | Less-Dili-Concern
2 | CN1CC[C@]23c4c5ccc(O)c4O[C@H]2[C@@H](O)C=C[C@H]3[C@H]1C5 [MORPHINE] | 0 | No-Dili-Concern
3 | CCCCc1nc(Cl)c(CO)n1Cc1ccc(-c2ccccc2-c2nn[nH]n2)cc1 [LOSARTAN] | 4 | Less-Dili-Concern
4 | Nc1ccc(S(=O)(=O)Nc2nccs2)cc1 [SULFATHIAZOLE] | 8 | Most-Dili-Concern
5 | N=C(N)NC(=O)c1nc(Cl)c(N)nc1N [AMILORIDE] | 3 | Less-Dili-Concern
6 | O=C(c1ccccc1)c1ccc2n1CCC2C(=O)O (configuration not stated) [KETOROLAC] | 3 | Less-Dili-Concern
7 | Cc1nnc(SCC2=C(C(=O)O)N3C(=O)[C@@H](NC(=O)Cn4cnnn4)[C@H]3SC2)s1 [CEFAZOLIN] | 3 | Less-Dili-Concern
8 | CC(C)(CO)[C@@H](O)C(=O)NCCCO [DEXPANTHENOL] | 0 | No-Dili-Concern
9 | CN(C)[C@@H]1C(O)=C(C(N)=O)C(=O)[C@@]2(O)C(O)=C3C(=O)c4c(O)cccc4[C@@](C)(O)[C@H]3C[C@@H]12 [TETRACYCLINE] | 2 | Less-Dili-Concern
10 | O=C(O)P(=O)(O)O [FOSCARNET] | 3 | Ambiguous-Dili-Concern
11 | NC(=O)C1CCN(CCCN2c3ccccc3Sc3ccc(Cl)cc32)CC1 [PIPAMAZINE] | 8 | Most-Dili-Concern
12 | C[C@@H](c1ncncc1F)[C@](O)(Cn1cncn1)c1ccc(F)cc1F [VORICONAZOLE] | 8 | Most-Dili-Concern
13 | c1cnc2cc3c(cc2n1)[C@@H]1CNC[C@H]3C1 [VARENICLINE] | 2 | Less-Dili-Concern
14 | CCCN(CCC)C(=O)Cc1c(-c2ccc(Cl)cc2)nc2ccc(Cl)cn12 [ALPIDEM] | 8 | Most-Dili-Concern
15 | POLYMYXIN B SULFATE | 0 | No-Dili-Concern
16 | C[n+]1ccccc1/C=N/O [PRALIDOXIME] | 3 | Ambiguous-Dili-Concern
17 | CN(N=O)C(=O)N[C@@H](C=O)[C@@H](O)[C@H](O)[C@H](O)CO [STREPTOZOCIN] | 3 | Ambiguous-Dili-Concern
18 | NCC1(CC(=O)O)CCCCC1 [GABAPENTIN] | 3 | Less-Dili-Concern
19 | C[N+](C)(C)CC(=O)O [BETAINE] | 0 | No-Dili-Concern

Row | Compound | DILI_severity_class [1] | DILI_Concern [2]
20 | CC(C)(N)Cc1ccccc1 [PHENTERMINE] | 0 | Less-Dili-Concern
21 | C[C@H](Cc1cc2c(c(C(N)=O)c1)N(CCCO)CC2)NCCOc1ccccc1OCC(F)(F)F [SILODOSIN] | 3 | Ambiguous-Dili-Concern
22 | CC(=O)[C@H]1CC[C@H]2[C@@H]3CCC4=CC(=O)CC[C@]4(C)[C@H]3CC[C@]12C [PROGESTERONE] | 2 | Less-Dili-Concern
23 | O=C(c1ccc(OCCN2CCCCC2)cc1)c1c(-c2ccc(O)cc2)sc2cc(O)ccc12 [RALOXIFENE] | 0 | No-Dili-Concern
24 | OC(CCN1CCCC1)(c1ccccc1)C1CCCCC1 (configuration not stated) [PROCYCLIDINE] | 0 | No-Dili-Concern
25 | CC(C)NCC(O)COc1ccc(CC(N)=O)cc1 (configuration not stated) [ATENOLOL] | 4 | Less-Dili-Concern
26 | CC1=C(/C=C/C(C)=C/C=C/C(C)=C/C(=O)O)C(C)(C)CCC1 [TRETINOIN] | 3 | Ambiguous-Dili-Concern
27 | CC[C@]1(O)C[C@@H]2CN(CCc3c([nH]c4ccccc34)[C@@](C(=O)OC)(c3cc4c(cc3OC)N(C)[C@H]3[C@@](O)(C(=O)OC)[C@H](OC(C)=O)[C@]5(CC)C=CCN6CC[C@]43[C@@H]65)C2)C1 [VINBLASTINE] | 0 | No-Dili-Concern
28 | CO[C@H]1/C=C/O[C@@]2(C)Oc3c(C)c(O)c4c(O)c(c5c(nc6cc(C)ccn65)c4c3C2=O)NC(=O)/C(C)=C\C=C\[C@H](C)[C@H](O)[C@@H](C)[C@@H](O)[C@@H](C)[C@H](OC(C)=O)[C@@H]1C [RIFAXIMIN] | 7 | Ambiguous-Dili-Concern
29 | COc1c(C)c2c(c(O)c1C/C=C(\C)CCC(=O)O)C(=O)OC2 [MYCOPHENOLIC ACID] | 3 | Ambiguous-Dili-Concern
30 | Nc1nc(NC2CC2)c2ncn([C@H]3C=C[C@@H](CO)C3)c2n1 [ABACAVIR] | 8 | Most-Dili-Concern
31 | OC[C@@H](O)[C@@H](O)[C@H](O)[C@@H](O)CO [SORBITOL] | 0 | No-Dili-Concern
32 | CO/N=C(\C(=O)N[C@@H]1C(=O)N2C(C(=O)O)=C(COC(C)=O)CS[C@H]12)c1csc(N)n1 [CEFOTAXIME] | 5 | Less-Dili-Concern
33 | CC(C)NCC(O)c1cc(O)cc(O)c1 (configuration not stated) [METAPROTERENOL] | 0 | No-Dili-Concern
34 | CN1CC[C@]23c4c5ccc(O)c4O[C@H]2C(=O)CC[C@@]3(O)[C@H]1C5 [OXYMORPHONE] | 0 | No-Dili-Concern
35 | BIVALIRUDIN | 0 | No-Dili-Concern
36 | CCCC(C)C1(CC)C(=O)NC(=O)NC1=O (configuration not stated) [PENTOBARBITAL] | 3 | Ambiguous-Dili-Concern
37 | C#CCN[C@@H]1CCc2ccccc21 [RASAGILINE] | 3 | Ambiguous-Dili-Concern
38 | CC(=O)Oc1ccc(C2(c3ccc(OC(C)=O)cc3)C(=O)N(C(C)=O)c3ccccc32)cc1 [TRIACETYLDIPHENOLISATIN] | 8 | Most-Dili-Concern

Row | Compound | DILI_severity_class [1] | DILI_Concern [2]
39 | Cc1[nH]cnc1CN1CCc2c(c3ccccc3n2C)C1=O [ALOSETRON] | 4 | Less-Dili-Concern
40 | C[C@@H](O)[C@H]1C(=O)N2C(C(=O)O)=C(S[C@@H]3CN[C@H](C(=O)Nc4cccc(C(=O)O)c4)C3)[C@H](C)[C@H]12 | 3 | Ambiguous-Dili-Concern
41 | O=C(O)CCCCCCNC1c2ccccc2CCc2ccccc21 [AMINEPTINE] | 8 | Most-Dili-Concern
42 | NC(=O)C(c1ccccc1)(c1ccccc1)[C@@H]1CCN(CCc2ccc3c(c2)CCO3)C1 [DARIFENACIN] | 0 | No-Dili-Concern
43 | CS(=O)(=O)CCNCc1ccc(-c2ccc3ncnc(Nc4ccc(OCc5cccc(F)c5)c(Cl)c4)c3c2)o1 [LAPATINIB] | 8 | Most-Dili-Concern
44 | C=CC1=C(C(=O)O)N2C(=O)[C@@H](NC(=O)/C(=N\OCC(=O)O)c3csc(N)n3)[C@H]2SC1 [CEFIXIME] | 4 | Ambiguous-Dili-Concern
45 | O=S(=O)(OC[C@H]1O[C@@H](O[C@]2(COS(=O)(=O)[O][Al]([OH])[OH])O[C@H](OS(=O)(=O)[O][Al]([OH])[OH])[C@@H](OS(=O)(=O)[O][Al]([OH])[OH])[C@@H]2OS(=O)(=O)[O][Al]([OH])[OH])[C@H](OS(=O)(=O)[O][Al]([OH])[OH])[C@@H](OS(=O)(=O)[O][Al]([OH])[OH])[C@@H]1OS(=O)(=O)[O][Al]([OH])[OH])[O][Al]([OH])[OH].[OH][Al]([OH])[OH].[OH][Al]([OH])[OH].[OH][Al]([OH])[OH].[OH][Al]([OH])[OH].[OH][Al]([OH])[OH].[OH][Al]([OH])[OH].[OH][Al]([OH])[OH].[OH][Al]([OH])[OH] | 0 | No-Dili-Concern
46 | S=P(N1CC1)(N1CC1)N1CC1 [THIOTEPA] | 3 | Less-Dili-Concern
47 | O=[As][As+](=O)[O-] (configuration not stated) [ARSENIC TRIOXIDE] | 3 | Ambiguous-Dili-Concern
48 | CNS(=O)(=O)CCc1ccc2[nH]cc(C3CCN(C)CC3)c2c1 | 4 | Ambiguous-Dili-Concern
49 | CC(=O)CCCCn1c(=O)c2c(ncn2C)n(C)c1=O [PENTOXIFYLLINE] | 5 | Ambiguous-Dili-Concern
50 | O=C(NCC(O)CO)c1c(I)c(C(=O)NCC(O)CO)c(I)c(N(CCO)C(=O)CO)c1I (configuration not stated) [IOVERSOL] | 0 | No-Dili-Concern
51 | CC(N)Cc1ccccc1 (configuration not stated) [AMPHETAMINE] | 0 | Less-Dili-Concern
52 | O=C1CCC(N2C(=O)c3ccccc3C2=O)C(=O)N1 (configuration not stated) [THALIDOMIDE] | 4 | Less-Dili-Concern
53 | COc1cc(Cc2cnc(N)nc2N)cc(OC)c1OC [TRIMETHOPRIM] | 4 | Less-Dili-Concern
54 | Cc1cc(C(=O)NNCc2ccccc2)no1 [ISOCARBOXAZID] | 5 | Ambiguous-Dili-Concern
55 | CC[C@H](C)[C@@H]1NC(=O)[C@H](Cc2ccc(O)cc2)NC(=O)[C@@H](N)CSSC[C@@H](C(=O)N2CCC[C@H]2C(=O)N[C@@H](CC(C)C)C(=O)NCC(N)=O)NC(=O)[C@H](CC(N)=O)NC(=O)[C@H](CCC(N)=O)NC1=O [OXYTOCIN] | 0 | No-Dili-Concern
56 | CN[C@H](CC(C)C)C(=O)N[C@H]1C(=O)N[C@@H](CC(N)=O)C(=O)N[C@H]2C(=O)N[C@H]3C(=O)N[C@H](C(=O)N[C@H](C(=O)O)c4cc(O)cc(O)c4-c4cc3ccc4O)[C@H](O)c3ccc(c(Cl)c3)Oc3cc2cc(c3O[C@@H]2O[C@H](CO)[C@@H](O)[C@H](O)[C@H]2O[C@H]2C[C@](C)(N)[C@H](O)[C@H](C)O2)Oc2ccc(cc2Cl)[C@H]1O [VANCOMYCIN] | 0 | Less-Dili-Concern
